From US11542295B2, “Use of 20-hydroxyecdysone and the derivatives thereof in the treatment of myopathies” (BIOPHYTIS, priority 2017, dated 2023)

How the values were obtained:
[1] = system: CTGF (connective tissue growth factor); experiment: Heart mRNA expression of fibrosis marker CTGF (semi-quantitative PCR); assay type: in vivo, mouse; conditions: mdx mice, 50 mg/kg*day, two months; p=0,0506
Procedure: Twelve-week-old C57BL10 gene pool (wild mice referred to as “C57” in the figures) and C57BL10 mdx (mouse model of Duchenne muscular dystrophy, referred to as “mdx” in the figures) male mice, produced at Charles Rivers, were used. Two groups of mdx were chronically exposed per os either to BIO101 (number of mice n=9) or to BIO103 (number of mice n=9) at a dose of 50 mg/kg*day. A group of C57 mice (number of mice n=5) and a group of mdx mice (number of mice n=15) received the vehicle, i.e. no treatment. The animals of all of the groups were tested for their functional capacity (exertion tolerance test) after two months of treatment. […]
An assessment of markers of fibrosis and cardiac hypertrophy is carried out at the end of the protocol, i.e. after two months of treatment. […] The extract RNA is quantified by spectrophotometry then the quality thereof is verified and validated with the Experion RNA StdSens Analysis Kit (Bio-Rad). […] Finally, semi-quantitative PCR analysis was carried out using SYBR® Green (Roche), a DNA intercalating agent and a LightCycler® 480 Real Time PCR (Roche) apparatus on 384-well plates. The molecular markers measured are as follows: • CTGF and collagen I: connective tissue growth factor (CTGF) is associated with healing and with many pathological fibrotic processes including DMD (Brigstock 2010; Song Y. 2017). […]

[2] = system: Human DMD skeletal muscle cells (KM571DMD1OFL Cl1); experiment: Cellular respiration (oxygen consumption rate, Seahorse XF Analyzer); assay type: cell-based; conditions: two days of treatment
Procedure: Human DMD skeletal muscle cells (KM571DMD1OFL Cl1) were differentiated for 4 days, then incubated in the presence or absence of BIO101 (1 or 5 μM) for 2 days. The oxygen consumption rate, also known as OCR, which reflects the mitochondrial respiration of the cells was measured using a Seahorse XF Analyzer (registered trademark, Agilent).
The basal respiration is measured directly whereas the maximum respiration is measured after adding oligomycin followed by FCCP (FIG. 9A and FIG. 9B). The results are referenced to the OCR of the untreated cells and are shown in the form of means plus or minus the standard error (SEM).

[3] = system: myh7 (beta myosin heavy chain); experiment: Heart mRNA expression of hypertrophy marker myh7 (semi-quantitative PCR); assay type: in vivo, mouse; conditions: mdx mice, 50 mg/kg*day, two months; p<0.01
Procedure: Twelve-week-old […] gene pool (wild mice referred to as “C57” in the figures) and […] mdx (mouse model of Duchenne muscular dystrophy, referred to as “mdx” in the figures) male mice, produced at Charles Rivers, were used. Two groups of mdx were chronically exposed per os either to BIO101 (number of mice n=9) or to BIO103 (number of mice n=9) at a dose of 50 mg/kg*day. A group of C57 mice (number of mice n=5) and a group of mdx mice (number of mice n=15) received the vehicle, i.e. no treatment. The animals of all of the groups were tested for their functional capacity (exertion tolerance test) after two months of treatment. The exertion tolerance test consists of measuring the maximum distance travelled (in-toto activity; FIGS. 1A and 1B). […] The extract RNA is quantified by spectrophotometry then the quality thereof is verified and validated with the Experion RNA StdSens Analysis Kit (Bio-Rad). […] Finally, semi-quantitative PCR analysis was carried out using SYBR® Green (Roche), a DNA intercalating agent and a LightCycler® 480 Real Time PCR (Roche) apparatus on 384-well plates. The molecular markers measured are as follows: • CTGF and collagen I: connective tissue growth factor (CTGF) is associated with healing and with many pathological fibrotic processes including DMD (Brigstock 2010; Song Y. 2017). […]

collagen I = experiment: Collagen I protein expression in gastrocnemius muscle (Western Blot); assay type: in vivo, mouse; conditions: 50 mg/kg*day, two months, p<0.01
Procedure: Twelve-week-old C57BL10 gene pool (wild mice referred to as “C57” in the figures) and C57BL10 mdx (mouse model of Duchenne muscular dystrophy, referred to as “mdx” in the figures) male mice, produced at Charles Rivers, were used. Two groups of mdx were chronically exposed per os either to BIO101 (number of mice n=9) or to BIO103 (number of mice n=9) at a dose of 50 mg/kg*day. A group of C57 mice (number of mice n=5) and a group of mdx mice (number of mice n=15) received the vehicle, i.e. no treatment. The animals of all of the groups were tested for their functional capacity (exertion tolerance test) after two months of treatment. The exertion tolerance test consists of measuring the maximum distance travelled (in-toto activity; FIGS. 1A and 1B). Furthermore, measurements of the maximum absolute isometric strength of the tibialis anterior muscle (in-situ activity; FIGS. 2A and 2B) were made after two months of treatment.
Alongside the observations made on the tibialis anterior muscle, an assessment of a marker of muscle fibrosis is carried out on the gastrocnemius muscle. The muscle is dissociated with moderate stirring for 16 h at 4° C. in RIPA lysis buffer. […] Collagen I is detected by Western Blot, detected by chemiluminescence then quantified by densitometry after normalisation with reference to GAPDH detection. […]

SMILES | genic expression of CTGF in heart compared to control mdx animals [1] | basal respiration increase (OCR) vs untreated cells ([2]; 1 μM, p<0.01) [%] | maximum respiration increase (OCR after oligomycin and FCCP) vs untreated cells ([2]; 1 μM, p<0.05) [%] | maximum respiration increase (OCR after oligomycin and FCCP) vs untreated cells ([2]; 5 μM, p =0.13) [%] | basal respiration increase (OCR) vs untreated cells ([2]; 5 μM, p<0.001) [%] | expression of myh7 in heart compared to mdx animals receiving the vehicle [3] | protein expression of collagen I in gastrocnemius muscle compared to untreated mdx mice (collagen I)
CC(C)(O)CC[C@@H](O)[C@](C)(O)[C@H]1CC[C@@]2(O)C3=CC(=O)[C@@H]4C[C@@H](O)[C@@H](O)C[C@]4(C)[C@H]3CC[C@]12C [BIO101, 20-hydroxyecdysone] | prevents | 20 | 51 | 22 | 21 | significantly reduces | 
CCSCC(=O)[C@H]1CC[C@@]2(O)C3=CC(=O)[C@@H]4C[C@@H](O)[C@@H](O)C[C@]4(C)C3CC[C@]12C (stereo partly drawn) [BIO103, (2S,3R,5R,10R,13R,14S,17S)-17-(2-ethylsulfanylacetyl)-2,3,14-trihydroxy-10,13-dimethyl-2,3,4,5,9,11,12,15,16,17-decahydro-1H-cyclopenta[a]phenanthren-6-one] |  |  |  |  |  | significantly reduces | significant decrease
